Here are results for 57 molecules from US10364226B2, “Pyridazinone compounds and uses thereof” (priority 2013, dated 2019).

Assay [1] deals with Influenza strain A549 A/WSN/33 (H1N1). The assay can be described thus: Influenza Antiviral Assay. The class given is cell-based, Influenza A virus. The settings on record: Influenza A virus, A549, 20 h, neuraminidase fluorescence readout, read-out: % Inhibition.
For assay [2], the target named is EN PA (Influenza A virus, UniProt P15659). The assay can be described thus: EN PA FRET Inhibition Assay. In kind it is biochemical. The settings on record: read-out: Potency.

On to `Cc1cn(C2(Cn3cc(O)c(=O)c(C(=O)NCC(C)(C)CO)n3)CCCC2)c2ncccc12` [Compound 823], for which the EC50 in assay [1] is under 20 µM. Moreover, the IC50 in assay [2] was under 0.1 µM.

As to `CNC(=O)c1nn(CC2(n3nc(C)c4ccccc43)CCCC2)cc(O)c1=O` [Compound 824], in assay [1], the EC50 is under 20 µM. Besides, the IC50 in assay [2] fell in the range of 0.1 to 1 µM.

On to `O=C(NCc1ccccc1)c1nn(CC2(c3ccncc3)CCCC2)cc(O)c1=O` [Compound 825], for which, in assay [1], the EC50 is under 20 µM. The IC50 in assay [2] was in the range of 0.1 to 1 µM.

With `O=C1NCCCCCc2ccc3ccn(c3c2)C2(CCCC2)Cn2cc(O)c(=O)c1n2` [Compound 826], in assay [1], the EC50 was under 20 µM. For the same molecule, the IC50 in assay [2] was under 0.1 µM.

Consider `CCC(=O)c1nn(CC2(n3cc(C)c4cccnc43)CCCC2)cc(O)c1=O` [Compound 827], for which the EC50 in assay [1] was under 20 µM. For the same molecule, the IC50 in assay [2] was under 0.1 µM.

Take `CCNC(=O)c1nn(CC2(c3ccc4ccccc4c3)CCCC2)cc(O)c1=O` [Compound 828]: the EC50 in assay [1] is under 20 µM. In addition, the IC50 in assay [2] was under 0.1 µM.

Turning to `CC(C)(C)NC(=O)c1nn(CC2(c3ccc4ccccc4c3)CCCC2)cc(O)c1=O` [Compound 829], the EC50 in assay [1] was under 20 µM. In assay [2], the IC50 was under 0.1 µM.

For the molecule `CNC(=O)c1nn(CC2(c3cn(C)c4ccccc34)CCCC2)cc(O)c1=O` [Compound 830], the EC50 in assay [1] was over 100 µM. In addition, the IC50 in assay [2] was 0.1 to 1 µM.

Regarding `CNC(=O)c1nn(CC2(c3c[nH]c4ccccc34)CCCC2)cc(O)c1=O` [Compound 831], the EC50 in assay [1] is over 100 µM. Besides, the IC50 in assay [2] was in the range of 0.1 to 1 µM.

Take `O=C(NCc1ccccc1)c1nn(CC2(c3cncnc3)CCCC2)cc(O)c1=O` [Compound 832]: in assay [1], the EC50 is over 100 µM. Moreover, the IC50 in assay [2] is under 0.1 µM.

As for `Cc1cn(C2(Cn3cc(O)c(=O)c(C(=O)C(C)C)n3)CCCC2)c2ncccc12` [Compound 833], in assay [1], the EC50 was under 20 µM. Also, the IC50 in assay [2] is under 0.1 µM.

For `CNC(=O)c1nn(CCN(c2ccccc2)c2ccccc2)cc(O)c1=O` [Compound 834], the EC50 in assay [1] was over 100 µM. Also, in assay [2], the IC50 fell in the range of 0.1 to 1 µM.

Regarding `CNC(=O)c1nn(CCn2c3ccccc3c3ccccc32)cc(O)c1=O` [Compound 835], the EC50 in assay [1] was over 100 µM. The IC50 in assay [2] was 0.1 to 1 µM.

Turning to `O=C1NCC/C=C/Cc2ccc3c(C(=O)C(F)(F)F)cn(c3c2)C2(CCCC2)Cn2cc(O)c(=O)c1n2` [Compound 836], the EC50 in assay [1] is over 100 µM. In assay [2], the IC50 is at least 1 µM.

As for `CNC(=O)c1nn(CCC(c2ccccc2)c2ccccc2)cc(O)c1=O` [Compound 837], the EC50 in assay [1] was over 100 µM. In assay [2], the IC50 is 0.1 to 1 µM.

For the molecule `CNC(=O)c1nn(CCN2c3ccccc3C=Cc3ccccc32)cc(O)c1=O` [Compound 838], the EC50 in assay [1] was under 20 µM. For the same molecule, the IC50 in assay [2] is under 0.1 µM.

On to `CNC(=O)c1nn(CCC2c3ccccc3CCc3ccccc32)cc(O)c1=O` [Compound 839], for which, in assay [1], the EC50 is over 100 µM. Also, the IC50 in assay [2] fell in the range of 0.1 to 1 µM.

In the case of `CNC(=O)c1nn(CCN2c3ccccc3CCc3ccccc32)cc(O)c1=O` [Compound 840], the EC50 in assay [1] is over 100 µM. In assay [2], the IC50 is 0.1 to 1 µM.

`O=C1NCC/C=C/Cc2ccc3ccn(c3c2)C2(CCCC2)Cn2cc(O)c(=O)c1n2` [Compound 841]: in assay [1], the EC50 was under 20 µM. The IC50 in assay [2] lay within 0.1 to 1 µM.

With `CNC(=O)c1nn(CCN2c3ccccc3COc3ccccc32)cc(O)c1=O` [Compound 842], the EC50 in assay [1] is over 100 µM. The IC50 in assay [2] was in the range of 0.1 to 1 µM.

For the molecule `CNC(=O)c1nn(CC2(c3ccc4ccccc4n3)CCCC2)cc(O)c1=O` [Compound 843], the EC50 in assay [1] is under 20 µM. In addition, the IC50 in assay [2] is under 0.1 µM.

For `CNC(=O)c1nn(CC2(c3ccc4cnccc4c3)CCCC2)cc(O)c1=O` [Compound 844], in assay [1], the EC50 is under 20 µM. The IC50 in assay [2] was under 0.1 µM.

As to `CNC(=O)c1nn(CC2(c3ccc4ncccc4c3)CCCC2)cc(O)c1=O` [Compound 845], the EC50 in assay [1] is under 20 µM. In assay [2], the IC50 is under 0.1 µM.

Consider `CNC(=O)c1nn(CC2(c3cc(C)c4ncccc4c3)CCCC2)cc(O)c1=O` [Compound 846], for which the EC50 in assay [1] was under 20 µM. Moreover, the IC50 in assay [2] was under 0.1 µM.

Take `CNC(=O)c1nn(CC2(c3cc(F)c4ncccc4c3)CCCC2)cc(O)c1=O` [Compound 847]: the EC50 in assay [1] is over 100 µM. For the same molecule, the IC50 in assay [2] is under 0.1 µM.

For the molecule `CNC(=O)c1nn(CC2(c3ccc4ccncc4c3)CCCC2)cc(O)c1=O` [Compound 848], in assay [1], the EC50 is over 100 µM. Further, the IC50 in assay [2] was under 0.1 µM.

Regarding `CNC(=O)c1nn(CC2(c3ccc4cccnc4c3)CCCC2)cc(O)c1=O` [Compound 849], the EC50 in assay [1] is under 20 µM. In addition, the IC50 in assay [2] is under 0.1 µM.

As to `CNC(=O)c1nn(CC2(n3ccc4ccccc43)CCCC2)cc(O)c1=O` [Compound 850], the EC50 in assay [1] was under 20 µM. Also, in assay [2], the IC50 is under 0.1 µM.

`CNC(=O)c1nn(CC2(n3cc(C)c4cc(Cl)cnc43)CCCC2)cc(O)c1=O` [Compound 851]: the EC50 in assay [1] was under 20 µM. Moreover, the IC50 in assay [2] is under 0.1 µM.

For `CNC(=O)c1nn(CC2(n3cc(C)c4cccnc43)CCCC2)cc(OCc2ccccc2)c1=O` [Compound 852], the EC50 in assay [1] is over 100 µM. In assay [2], the IC50 was at least 1 µM.

For `CNC(=O)c1nn(CC2(n3ccc4ccc(C)nc43)CCCC2)cc(O)c1=O` [Compound 853], the EC50 in assay [1] is under 20 µM. The IC50 in assay [2] is under 0.1 µM.

Regarding `CONC(=O)c1nn(CC2(n3cc(C)c4cccnc43)CCCC2)cc(O)c1=O` [Compound 854], in assay [1], the EC50 was under 20 µM. Besides, the IC50 in assay [2] was under 0.1 µM.

Regarding `CNC(=O)c1nn(CC2(n3cnc4cncnc43)CCCC2)cc(O)c1=O` [Compound 855], the EC50 in assay [1] was over 100 µM. Also, in assay [2], the IC50 was 0.1 to 1 µM.

As to `CNC(=O)c1nn(CC2(n3ccc4c(Cl)cccc43)CCCC2)cc(O)c1=O` [Compound 856], the EC50 in assay [1] is under 20 µM. Moreover, in assay [2], the IC50 is under 0.1 µM.

Regarding `CNC(=O)c1nn(CC2(n3ccc4c(C)cccc43)CCCC2)cc(O)c1=O` [Compound 857], the EC50 in assay [1] is under 20 µM. For the same molecule, in assay [2], the IC50 is under 0.1 µM.

As to `CNC(=O)c1nn(CC2(Cn3cc(C)c4cccnc43)CCCC2)cc(O)c1=O` [Compound 858], the EC50 in assay [1] was over 100 µM. Further, the IC50 in assay [2] lay in the range of 0.1 to 1 µM.

On to `CNC(=O)c1nn(CC2(n3ccc4c(F)cccc43)CCCC2)cc(O)c1=O` [Compound 859], for which, in assay [1], the EC50 is under 20 µM. Besides, the IC50 in assay [2] is under 0.1 µM.

`CNC(=O)c1nn(CC2(n3ccc4ccc(Cl)cc43)CCCC2)cc(O)c1=O` [Compound 860]: in assay [1], the EC50 was under 20 µM. The IC50 in assay [2] is under 0.1 µM.

As for `CNC(=O)c1nn(CC2(n3ccc4ccc(F)cc43)CCCC2)cc(O)c1=O` [Compound 861], in assay [1], the EC50 was under 20 µM. In assay [2], the IC50 is under 0.1 µM.

Consider `CCn1cc(C2(Cn3cc(O)c(=O)c(C(=O)NC)n3)CCCC2)c2ccccc21` [Compound 862], for which the EC50 in assay [1] is over 100 µM. For the same molecule, in assay [2], the IC50 lay within 0.1 to 1 µM.

Consider `Cc1cn(C2(Cn3cc(O)c(=O)c(C(=O)NC(C)(C)CNC(=O)OC(C)(C)C)n3)CCCC2)c2ncccc12` [Compound 863], for which the EC50 in assay [1] is under 20 µM. Moreover, the IC50 in assay [2] lay in the range of 0.1 to 1 µM.

As for `CNC(=O)c1nn(CC2(n3ccc4c(C)ccnc43)CCCC2)cc(O)c1=O` [Compound 864], the EC50 in assay [1] was under 20 µM. Moreover, the IC50 in assay [2] was under 0.1 µM.

As to `Cc1cn(C2(Cn3cc(O)c(=O)c(C(=O)NCCN)n3)CCCC2)c2ncccc12` [Compound 865], in assay [1], the EC50 was under 20 µM. In addition, the IC50 in assay [2] was under 0.1 µM.

For `CC(C)(CO)NC(=O)c1nn(CC2(n3cc(Cl)c4cccnc43)CCCC2)cc(O)c1=O` [Compound 866], the EC50 in assay [1] was under 20 µM. For the same molecule, the IC50 in assay [2] was under 0.1 µM.

On to `CC(C)(CO)NC(=O)c1nn(CC2(n3ccc4cccnc43)CCCC2)cc(O)c1=O` [Compound 867], for which the EC50 in assay [1] is under 20 µM. In assay [2], the IC50 is under 0.1 µM.

Take `Cc1cn(C2(Cn3cc(O)c(=O)c(C(=O)NC(C)(C)CN)n3)CCCC2)c2ccccc12` [Compound 868]: the EC50 in assay [1] is under 20 µM. Also, the IC50 in assay [2] was under 0.1 µM.

Turning to `Cc1cn(C2(Cn3cc(O)c(=O)c(C(=O)NCC(C)(C)CNC(=O)OC(C)(C)C)n3)CCCC2)c2ncccc12` [Compound 869], the EC50 in assay [1] was under 20 µM. In addition, the IC50 in assay [2] was in the range of 0.1 to 1 µM.

On to `Cc1cn(C2(Cn3cc(O)c(=O)c(C(=O)NCC(C)(C)CN)n3)CCCC2)c2ncccc12` [Compound 870], for which the EC50 in assay [1] was in the range of 20 to 100 µM. For the same molecule, in assay [2], the IC50 was under 0.1 µM.

As to `CNC(=O)c1nn(CC2(c3cccc4[nH]ncc34)CCCC2)cc(O)c1=O` [Compound 871], the EC50 in assay [1] is over 100 µM. For the same molecule, the IC50 in assay [2] was under 0.1 µM.

Consider `CNC(=O)c1nn(CC2(n3ccc4cc(C)cnc43)CCCC2)cc(O)c1=O` [Compound 872], for which the EC50 in assay [1] was under 20 µM. For the same molecule, the IC50 in assay [2] was under 0.1 µM.

`O=C1NCCCCCOc2ccc(cc2)C2(CCCC2)Cn2cc(O)c(=O)c1n2` [Compound 873]: the EC50 in assay [1] is over 100 µM. Moreover, in assay [2], the IC50 is 0.1 to 1 µM.

Turning to `CCOC(=O)[C@H]1[C@@H]2CC(Cn3cc(O)c(=O)c(C(=O)NC)n3)(n3cc(C)c4cccnc43)C[C@@H]21` (stereo partly drawn) [Compound 874], the EC50 in assay [1] is over 100 µM. In addition, the IC50 in assay [2] fell in the range of 0.1 to 1 µM.

Take `C#Cc1cn(C2(Cn3cc(O)c(=O)c(C(=O)NC)n3)CCCC2)c2ncc(C)cc12` [Compound 875]: the EC50 in assay [1] is under 20 µM. Further, the IC50 in assay [2] was under 0.1 µM.

For the molecule `Cc1cn(C2(Cn3cc(O)c(=O)c(C(=O)NCCNC(=O)OC(C)(C)C)n3)CCCC2)c2ncccc12` [Compound 876], the EC50 in assay [1] was under 20 µM. The IC50 in assay [2] is under 0.1 µM.

As to `Cc1cn(C2(Cn3cc(O)c(=O)c(C(=O)N4CCOCC4)n3)CCCC2)c2ncccc12` [Compound 877], the EC50 in assay [1] was over 100 µM. In addition, the IC50 in assay [2] was 0.1 to 1 µM.

Consider `CNC(=O)c1nn(CC2(c3ccc4cc(C)ccc4c3)CCCC2)cc(O)c1=O` [Compound 879], for which the EC50 in assay [1] is under 20 µM. Also, the IC50 in assay [2] is under 0.1 µM.

In the case of `CNC(=O)c1nn(CC2(n3cc(C(=O)NC)c4cccnc43)CCCC2)cc(O)c1=O` [Compound 880], the EC50 in assay [1] is over 100 µM. Besides, in assay [2], the IC50 was under 0.1 µM.
